Data reported in ChEMBL document CHEMBL5715956, “Selective Targeting of Bromodomains of the Bromodomain-PHD Fingers Family Impairs Osteoclast Differentiation” (ACS Chem Biol, 2017).

Assays:
[1] = molecular target: Bromodomain testis-specific protein (Homo sapiens) (UniProt Q58F21); details: dose 10.0 µM
[2] = molecular target: Protein polybromo-1 (Homo sapiens) (UniProt Q86U86); details: dose 10.0 µM
[3] = molecular target: Transcription intermediary factor 1-alpha (Homo sapiens) (UniProt O15164); details: dose 10.0 µM
Chain of Transcription intermediary factor 1-alpha (Homo sapiens) (O15164 whole entry): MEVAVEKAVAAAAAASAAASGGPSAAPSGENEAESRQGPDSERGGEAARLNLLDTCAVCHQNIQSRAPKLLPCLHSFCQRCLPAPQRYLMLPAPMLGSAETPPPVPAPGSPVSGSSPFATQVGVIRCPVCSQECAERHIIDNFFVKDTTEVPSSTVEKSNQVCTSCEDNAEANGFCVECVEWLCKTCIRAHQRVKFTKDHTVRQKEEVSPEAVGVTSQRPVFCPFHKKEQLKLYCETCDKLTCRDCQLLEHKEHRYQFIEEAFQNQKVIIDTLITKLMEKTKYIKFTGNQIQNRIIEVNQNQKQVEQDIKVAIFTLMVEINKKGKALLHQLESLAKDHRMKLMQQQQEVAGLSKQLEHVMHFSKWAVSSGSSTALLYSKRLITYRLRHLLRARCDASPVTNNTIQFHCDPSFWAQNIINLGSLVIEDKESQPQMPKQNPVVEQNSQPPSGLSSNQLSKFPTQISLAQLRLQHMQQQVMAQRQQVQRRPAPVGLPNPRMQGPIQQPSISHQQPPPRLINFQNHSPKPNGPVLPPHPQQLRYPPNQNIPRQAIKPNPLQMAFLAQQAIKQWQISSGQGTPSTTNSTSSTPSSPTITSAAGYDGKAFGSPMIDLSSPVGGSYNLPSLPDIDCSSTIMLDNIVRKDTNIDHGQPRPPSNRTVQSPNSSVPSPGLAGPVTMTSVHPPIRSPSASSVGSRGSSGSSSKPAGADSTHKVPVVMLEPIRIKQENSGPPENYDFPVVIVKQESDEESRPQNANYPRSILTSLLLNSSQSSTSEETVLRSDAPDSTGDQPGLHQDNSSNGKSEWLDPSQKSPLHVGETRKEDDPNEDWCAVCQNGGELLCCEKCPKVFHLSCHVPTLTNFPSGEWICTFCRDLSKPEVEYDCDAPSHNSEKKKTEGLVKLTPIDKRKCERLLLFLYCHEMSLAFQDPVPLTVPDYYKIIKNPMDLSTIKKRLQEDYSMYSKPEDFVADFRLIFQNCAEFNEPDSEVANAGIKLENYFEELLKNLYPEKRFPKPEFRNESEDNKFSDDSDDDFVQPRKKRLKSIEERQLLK

[4] = molecular target: Protein polybromo-1 (Homo sapiens) (UniProt Q86U86); details: dose 10.0 µM; remark: listed apart in the source
[5] = molecular target: Bromodomain-containing protein 4 (Homo sapiens) (UniProt O60885); assay: Binding affinity to BRD4 BD1 (unknown origin) assessed as change in entropy TdeltaS at 14 uM by Isothermal titration calorimetry
[6] = molecular target: Protein polybromo-1 (Homo sapiens) (UniProt Q86U86); details: dose 10.0 µM; remark: listed apart in the source
[7] = molecular target: ATPase family AAA domain-containing protein 2 (Homo sapiens) (UniProt Q6PL18); details: dose 10.0 µM
[8] = molecular target: Transcription initiation factor TFIID subunit 1-like (Homo sapiens) (UniProt Q8IZX4); details: dose 10.0 µM
[9] = molecular target: T1, Bromodomain-containing protein 1 (Homo sapiens) (UniProt O95696); assay: Binding affinity to BRPF2 (unknown origin) assessed as change in entropy at 12 uM by Isothermal titration calorimetry
T1 sequence (whole entry): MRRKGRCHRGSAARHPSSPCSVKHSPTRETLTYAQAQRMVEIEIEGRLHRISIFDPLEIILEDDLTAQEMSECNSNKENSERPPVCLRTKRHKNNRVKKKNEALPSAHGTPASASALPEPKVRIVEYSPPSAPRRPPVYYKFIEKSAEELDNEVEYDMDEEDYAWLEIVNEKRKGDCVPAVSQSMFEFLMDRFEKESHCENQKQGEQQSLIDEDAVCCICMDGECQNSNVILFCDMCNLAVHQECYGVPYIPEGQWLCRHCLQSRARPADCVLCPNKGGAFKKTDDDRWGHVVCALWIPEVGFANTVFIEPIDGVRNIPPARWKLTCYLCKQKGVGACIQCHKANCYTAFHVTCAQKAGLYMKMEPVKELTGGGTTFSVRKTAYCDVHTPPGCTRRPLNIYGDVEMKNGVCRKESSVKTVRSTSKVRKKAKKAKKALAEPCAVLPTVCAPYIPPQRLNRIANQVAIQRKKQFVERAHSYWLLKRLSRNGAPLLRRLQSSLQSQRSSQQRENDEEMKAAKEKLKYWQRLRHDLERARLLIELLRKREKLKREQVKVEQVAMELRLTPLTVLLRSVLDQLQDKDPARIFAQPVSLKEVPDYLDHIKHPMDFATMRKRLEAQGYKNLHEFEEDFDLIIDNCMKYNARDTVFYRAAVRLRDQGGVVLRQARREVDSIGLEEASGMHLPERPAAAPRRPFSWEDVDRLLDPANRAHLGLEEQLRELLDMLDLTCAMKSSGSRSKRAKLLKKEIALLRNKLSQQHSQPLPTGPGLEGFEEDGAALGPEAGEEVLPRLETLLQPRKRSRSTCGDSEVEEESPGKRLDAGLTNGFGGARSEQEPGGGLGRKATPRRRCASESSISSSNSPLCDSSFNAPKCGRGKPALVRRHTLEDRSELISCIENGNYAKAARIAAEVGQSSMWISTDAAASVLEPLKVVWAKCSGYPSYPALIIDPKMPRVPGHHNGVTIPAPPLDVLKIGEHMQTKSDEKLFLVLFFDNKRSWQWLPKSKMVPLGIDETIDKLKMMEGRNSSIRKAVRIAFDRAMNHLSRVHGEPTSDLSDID

[10] = molecular target: Protein polybromo-1 (Homo sapiens) (UniProt Q86U86); details: dose 10.0 µM; remark: listed apart in the source
[11] = molecular target: Bromodomain-containing protein 4 (Homo sapiens) (UniProt O60885); assay: Binding affinity to BRD4 BD1 (unknown origin) assessed as change in gibbs free energy at 14 uM by Isothermal titration calorimetry
Peregrin (Homo sapiens) = molecular target: T2, Peregrin (Homo sapiens) (UniProt P55201); details: dose 10.0 µM
T2 sequence (whole entry): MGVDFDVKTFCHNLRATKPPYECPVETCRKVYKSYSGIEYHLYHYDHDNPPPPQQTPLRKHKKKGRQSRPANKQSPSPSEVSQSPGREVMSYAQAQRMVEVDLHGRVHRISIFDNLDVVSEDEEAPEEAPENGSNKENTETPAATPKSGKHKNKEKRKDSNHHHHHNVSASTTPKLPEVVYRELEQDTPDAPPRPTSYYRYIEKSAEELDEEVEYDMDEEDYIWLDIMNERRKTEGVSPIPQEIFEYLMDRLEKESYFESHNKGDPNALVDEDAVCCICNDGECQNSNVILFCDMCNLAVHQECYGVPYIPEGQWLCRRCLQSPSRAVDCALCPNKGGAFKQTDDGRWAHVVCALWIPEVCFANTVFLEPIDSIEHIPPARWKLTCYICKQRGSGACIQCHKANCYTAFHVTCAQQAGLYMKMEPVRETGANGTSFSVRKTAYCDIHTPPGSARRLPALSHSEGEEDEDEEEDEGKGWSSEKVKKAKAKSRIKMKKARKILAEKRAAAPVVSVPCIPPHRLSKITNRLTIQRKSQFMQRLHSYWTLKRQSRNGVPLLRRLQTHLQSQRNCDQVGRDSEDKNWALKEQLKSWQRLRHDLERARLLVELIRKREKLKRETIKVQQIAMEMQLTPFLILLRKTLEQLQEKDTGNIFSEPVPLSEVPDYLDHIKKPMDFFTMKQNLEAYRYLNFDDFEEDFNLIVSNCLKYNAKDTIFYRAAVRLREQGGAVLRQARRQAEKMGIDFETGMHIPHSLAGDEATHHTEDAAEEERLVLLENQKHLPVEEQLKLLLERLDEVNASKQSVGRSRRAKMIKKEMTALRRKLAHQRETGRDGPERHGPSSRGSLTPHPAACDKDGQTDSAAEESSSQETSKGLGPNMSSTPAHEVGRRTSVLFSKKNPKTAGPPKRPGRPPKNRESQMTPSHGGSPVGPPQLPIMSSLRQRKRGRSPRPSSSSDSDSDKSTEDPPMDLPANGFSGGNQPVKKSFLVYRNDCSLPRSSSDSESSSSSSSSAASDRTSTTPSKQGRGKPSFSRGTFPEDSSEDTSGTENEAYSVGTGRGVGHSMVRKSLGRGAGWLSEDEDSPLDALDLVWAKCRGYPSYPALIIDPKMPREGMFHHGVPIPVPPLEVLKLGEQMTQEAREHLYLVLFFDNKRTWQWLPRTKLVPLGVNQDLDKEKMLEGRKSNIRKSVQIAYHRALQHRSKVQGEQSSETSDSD

[12] = molecular target: Bromodomain-containing protein 2 (Homo sapiens) (UniProt P25440); details: dose 10.0 µM
Chain of Bromodomain-containing protein 2 (Homo sapiens) (P25440 whole entry, looked up): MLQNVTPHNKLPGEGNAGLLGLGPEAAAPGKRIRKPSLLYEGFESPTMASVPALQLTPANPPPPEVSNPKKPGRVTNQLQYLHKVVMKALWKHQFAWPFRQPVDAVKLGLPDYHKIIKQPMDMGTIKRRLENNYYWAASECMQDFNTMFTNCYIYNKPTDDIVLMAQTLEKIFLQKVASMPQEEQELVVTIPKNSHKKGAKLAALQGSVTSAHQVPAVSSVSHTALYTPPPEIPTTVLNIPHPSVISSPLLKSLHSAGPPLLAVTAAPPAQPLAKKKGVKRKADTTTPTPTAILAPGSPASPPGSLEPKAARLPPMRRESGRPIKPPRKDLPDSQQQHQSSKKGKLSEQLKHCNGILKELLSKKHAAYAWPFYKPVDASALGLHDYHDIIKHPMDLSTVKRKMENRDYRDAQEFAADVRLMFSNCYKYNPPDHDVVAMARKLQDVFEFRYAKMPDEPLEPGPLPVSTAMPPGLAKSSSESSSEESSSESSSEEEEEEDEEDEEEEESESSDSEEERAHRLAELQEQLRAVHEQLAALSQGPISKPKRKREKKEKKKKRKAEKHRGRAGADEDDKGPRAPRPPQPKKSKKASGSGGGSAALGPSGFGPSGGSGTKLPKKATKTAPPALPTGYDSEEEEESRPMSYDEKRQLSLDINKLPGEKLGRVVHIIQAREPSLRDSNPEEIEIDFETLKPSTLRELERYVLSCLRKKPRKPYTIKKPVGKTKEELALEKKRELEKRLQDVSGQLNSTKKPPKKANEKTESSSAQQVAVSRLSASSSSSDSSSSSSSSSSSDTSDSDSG

[13] = molecular target: 5-hydroxytryptamine receptor 6 (Homo sapiens) (UniProt P50406); assay: Binding affinity to 5HT6 (unknown origin) assessed as specific binding at 10 uM relative to control
Chain of 5-hydroxytryptamine receptor 6 (Homo sapiens) (P50406 whole entry): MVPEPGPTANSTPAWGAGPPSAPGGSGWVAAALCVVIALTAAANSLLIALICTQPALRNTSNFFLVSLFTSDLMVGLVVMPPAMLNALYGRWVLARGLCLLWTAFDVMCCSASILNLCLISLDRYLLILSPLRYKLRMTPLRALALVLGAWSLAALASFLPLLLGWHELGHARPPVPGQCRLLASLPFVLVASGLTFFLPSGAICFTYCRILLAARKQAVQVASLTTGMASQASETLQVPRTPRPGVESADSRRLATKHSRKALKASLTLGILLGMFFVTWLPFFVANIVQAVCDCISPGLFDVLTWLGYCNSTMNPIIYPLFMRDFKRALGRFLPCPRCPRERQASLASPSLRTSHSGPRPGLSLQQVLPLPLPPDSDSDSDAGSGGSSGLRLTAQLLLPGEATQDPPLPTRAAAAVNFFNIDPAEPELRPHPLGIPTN

Chain of Protein polybromo-1 (Homo sapiens) (Q86U86 whole entry, the tested form may be a part): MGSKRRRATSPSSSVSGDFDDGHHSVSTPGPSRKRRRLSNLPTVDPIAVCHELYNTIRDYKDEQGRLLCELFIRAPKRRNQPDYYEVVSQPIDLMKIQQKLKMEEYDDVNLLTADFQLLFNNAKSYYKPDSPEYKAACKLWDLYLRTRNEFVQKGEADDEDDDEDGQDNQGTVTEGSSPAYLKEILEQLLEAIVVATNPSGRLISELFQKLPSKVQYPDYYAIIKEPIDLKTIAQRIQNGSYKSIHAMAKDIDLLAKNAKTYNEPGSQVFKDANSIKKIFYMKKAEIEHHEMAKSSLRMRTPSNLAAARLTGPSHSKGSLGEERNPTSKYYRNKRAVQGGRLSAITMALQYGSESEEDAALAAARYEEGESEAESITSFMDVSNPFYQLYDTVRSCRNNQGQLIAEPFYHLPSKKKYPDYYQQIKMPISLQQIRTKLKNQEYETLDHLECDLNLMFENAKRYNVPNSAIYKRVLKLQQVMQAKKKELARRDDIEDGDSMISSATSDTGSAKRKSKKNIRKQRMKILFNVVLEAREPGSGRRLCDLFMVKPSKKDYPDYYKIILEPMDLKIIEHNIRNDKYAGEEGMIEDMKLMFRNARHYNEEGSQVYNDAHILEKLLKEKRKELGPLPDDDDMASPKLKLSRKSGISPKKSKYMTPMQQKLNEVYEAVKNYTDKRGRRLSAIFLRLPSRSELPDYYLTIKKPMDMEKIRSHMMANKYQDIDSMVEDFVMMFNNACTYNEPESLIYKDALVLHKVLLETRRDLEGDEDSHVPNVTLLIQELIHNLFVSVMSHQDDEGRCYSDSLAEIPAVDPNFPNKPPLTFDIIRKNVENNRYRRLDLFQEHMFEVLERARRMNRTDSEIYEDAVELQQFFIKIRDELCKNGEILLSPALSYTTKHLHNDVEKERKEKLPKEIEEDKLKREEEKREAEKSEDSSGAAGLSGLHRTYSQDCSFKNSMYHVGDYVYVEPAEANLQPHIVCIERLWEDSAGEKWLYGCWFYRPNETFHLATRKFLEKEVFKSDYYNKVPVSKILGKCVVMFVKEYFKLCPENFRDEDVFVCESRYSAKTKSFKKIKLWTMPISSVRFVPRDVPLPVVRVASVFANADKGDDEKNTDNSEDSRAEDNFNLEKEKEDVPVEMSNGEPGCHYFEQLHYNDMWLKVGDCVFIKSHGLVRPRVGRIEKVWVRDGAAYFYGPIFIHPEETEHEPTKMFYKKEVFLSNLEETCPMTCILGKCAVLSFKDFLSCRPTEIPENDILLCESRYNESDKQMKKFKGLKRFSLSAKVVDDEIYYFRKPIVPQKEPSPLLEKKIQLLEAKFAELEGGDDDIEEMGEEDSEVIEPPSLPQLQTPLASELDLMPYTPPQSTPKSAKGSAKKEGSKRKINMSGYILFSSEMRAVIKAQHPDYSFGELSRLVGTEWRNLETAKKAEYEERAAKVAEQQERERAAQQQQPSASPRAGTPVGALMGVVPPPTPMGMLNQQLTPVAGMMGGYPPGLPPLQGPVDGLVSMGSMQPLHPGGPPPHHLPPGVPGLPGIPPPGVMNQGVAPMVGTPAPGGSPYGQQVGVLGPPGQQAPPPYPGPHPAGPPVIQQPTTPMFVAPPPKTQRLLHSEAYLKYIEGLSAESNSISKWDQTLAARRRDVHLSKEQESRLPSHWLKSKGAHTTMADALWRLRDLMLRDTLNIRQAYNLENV

ΔTm [1]: 0.4 °C
ΔTm [2]: 0.2 °C
ΔTm [3]: 1.8 °C
ΔTm [4]: 0.4 °C
TdeltaS [5]: 0.198 kcal/mol
ΔTm [6]: 0.2 °C
ΔTm [7]: 0.14 °C
ΔTm [8]: 1.4 °C
deltaS [9]: -0.004 kcal/mol/K
ΔTm [10]: 0.8 °C
deltaG [11]: -7.13 kcal/mol
ΔTm (Peregrin (Homo sapiens)): 6.5 °C
ΔTm [12]: 0.8 °C
Activity [13]: 49.9%
SMILES: COc1cc2c(cc1NS(=O)(=O)c1ccc(Br)cc1C)n(C)c(=O)n2C
